Reference: ChEMBL document CHEMBL1127286, “Quantitative structure-activity relationships study of endothelin-1 analogs” (Bioorg Med Chem Lett, 1994)

Tests used:
[1] = molecular target: T1, Endothelin receptor type B (Rattus norvegicus) (UniProt P21451); assay: Concentration required to produce 50% inhibition of binding against ET B receptor obtained from rat brain membrane
T1 sequence (whole entry): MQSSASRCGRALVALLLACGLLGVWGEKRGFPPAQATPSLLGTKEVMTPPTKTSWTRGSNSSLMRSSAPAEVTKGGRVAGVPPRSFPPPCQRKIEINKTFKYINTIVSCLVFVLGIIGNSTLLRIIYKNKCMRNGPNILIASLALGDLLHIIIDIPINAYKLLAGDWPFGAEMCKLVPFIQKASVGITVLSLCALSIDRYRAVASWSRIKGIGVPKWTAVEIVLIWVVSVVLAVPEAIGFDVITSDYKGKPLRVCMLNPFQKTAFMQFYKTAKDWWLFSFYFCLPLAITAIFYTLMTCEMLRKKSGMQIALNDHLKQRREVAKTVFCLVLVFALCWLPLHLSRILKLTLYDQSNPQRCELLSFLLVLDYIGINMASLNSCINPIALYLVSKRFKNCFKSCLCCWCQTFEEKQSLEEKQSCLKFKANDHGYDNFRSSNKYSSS

[2] = molecular target: T2, Endothelin-1 receptor (Rattus norvegicus) (UniProt P26684); assay: Concentration required to produce 50% inhibition of binding against ET A receptor obtained from rat thoracic aortic membrane
T2 sequence (whole entry): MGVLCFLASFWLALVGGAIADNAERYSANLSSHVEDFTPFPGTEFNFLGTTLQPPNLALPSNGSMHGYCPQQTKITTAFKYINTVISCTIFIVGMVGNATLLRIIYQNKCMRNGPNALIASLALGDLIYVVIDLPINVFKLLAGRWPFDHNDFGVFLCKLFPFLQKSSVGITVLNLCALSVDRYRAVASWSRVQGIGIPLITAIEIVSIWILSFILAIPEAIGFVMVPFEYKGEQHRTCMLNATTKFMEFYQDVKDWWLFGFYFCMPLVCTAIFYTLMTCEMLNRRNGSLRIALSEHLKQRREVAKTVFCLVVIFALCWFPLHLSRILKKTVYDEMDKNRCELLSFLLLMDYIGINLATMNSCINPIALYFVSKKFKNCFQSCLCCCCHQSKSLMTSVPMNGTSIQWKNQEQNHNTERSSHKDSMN

Row | pIC50 [1] | pIC50 [2] | SMILES
1 | 7.55 | 6.13 | CC[C@@H](C)[C@H](NC(=O)[C@H](CC(=O)O)NC(=O)[C@H](CC(C)C)NC(=O)[C@H](Cc1c[nH]cn1)NC(=O)[C@H](CS)NC(=O)[C@H](Cc1ccccc1)NC(=O)[C@H](Cc1ccc(O)cc1)NC(=O)[C@@H](NC(=O)[C@H](CS)NC(=O)[C@H](CCC(=O)O)NC(=O)[C@H](CCCCN)NC(=O)[C@H](CC(=O)O)NC(=O)[C@H](CCSC)NC(=O)[C@H](CC(C)C)NC(=O)[C@H](CO)NC(=O)[C@H](CO)NC(=O)[C@H](CS)NC(=O)[C@H](CO)NC(=O)[C@@H](N)CS)C(C)C)C(=O)N[C@H](Cc1c[nH]cn1)C(=O)N[C@@H](Cc1c[nH]c2ccccc12)C(=O)O
2 | 9.76 | 8.89 | CC[C@@H](C)[C@H](NC(=O)[C@H](CC(=O)O)NC(=O)[C@H](CC(C)C)NC(=O)[C@H](Cc1c[nH]cn1)NC(=O)[C@H](CS)NC(=O)[C@H](Cc1ccccc1)NC(=O)[C@H](Cc1ccc(O)cc1)NC(=O)[C@@H](NC(=O)[C@H](CS)NC(=O)[C@H](CCC(=O)O)NC(=O)[C@H](CCCCN)NC(=O)[C@H](CC(=O)O)NC(=O)[C@H](CCSC)NC(=O)[C@H](CC(C)C)NC(=O)[C@H](CO)NC(=O)[C@H](CO)NC(=O)[C@H](CS)NC(=O)[C@H](CO)NC(=O)[C@@H](N)CS)C(C)C)C(=O)N[C@H](C(=O)N[C@@H](Cc1c[nH]c2ccccc12)C(=O)O)c1ccccc1
3 | 9.78 | 8.06 | CCC(CC)C[C@@H](NC(=O)[C@@H](NC(=O)[C@H](CC(=O)O)NC(=O)[C@H](CC(C)C)NC(=O)[C@H](Cc1c[nH]cn1)NC(=O)[C@H](CS)NC(=O)[C@H](Cc1ccccc1)NC(=O)[C@H](Cc1ccc(O)cc1)NC(=O)[C@@H](NC(=O)[C@H](CS)NC(=O)[C@H](CCC(=O)O)NC(=O)[C@H](CCCCN)NC(=O)[C@H](CC(=O)O)NC(=O)[C@H](CCSC)NC(=O)[C@H](CC(C)C)NC(=O)[C@H](CO)NC(=O)[C@H](CO)NC(=O)[C@H](CS)NC(=O)[C@H](CO)NC(=O)[C@@H](N)CS)C(C)C)[C@H](C)CC)C(=O)N[C@@H](Cc1c[nH]c2ccccc12)C(=O)O
